Measured values reported in PubChem BioAssay (NCI).
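Cultured in 96-well plates, cells were exposed to test compound for 48 hours across five concentrations. Here, GI50 denotes the concentration required for 50% inhibition of growth. TGI: concentration producing complete growth inhibition.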

Key:
Assay in all cases: inhibition of tumour cell growth, NCI panel, 48 h
786-0 renal = test system: 786-0 renal
A498 renal = test system: A498 renal
A549 NSCLC = test system: A549 NSCLC
ACHN renal = test system: ACHN renal
BT-549 breast = test system: BT-549 breast
CAKI-1 renal = test system: CAKI-1 renal
CCRF-CEM leukemia = test system: CCRF-CEM leukemia
COLO 205 colon = test system: COLO 205 colon
DLD-1 colon = test system: DLD-1 colon
DMS 273 small cell lung = test system: DMS 273 small cell lung
DU-145 prostate = test system: DU-145 prostate
EKVX NSCLC = test system: EKVX NSCLC
HCC-2998 colon = test system: HCC-2998 colon
HCT-116 colon = test system: HCT-116 colon
HCT-15 colon = test system: HCT-15 colon
HL-60(TB) leukemia = test system: HL-60(TB) leukemia
HOP-18 NSCLC = test system: HOP-18 NSCLC
HOP-62 NSCLC = test system: HOP-62 NSCLC
HOP-92 NSCLC = test system: HOP-92 NSCLC
HS 578T breast = test system: HS 578T breast
HT29 colon = test system: HT29 colon
IGROV1 ovarian = test system: IGROV1 ovarian
K-562 leukemia = test system: K-562 leukemia
KM12 colon = test system: KM12 colon
KM20L2 colon = test system: KM20L2 colon
LOX IMVI melanoma = test system: LOX IMVI melanoma
LXFL 529 NSCLC = test system: LXFL 529 NSCLC
M14 melanoma = test system: M14 melanoma
M19-MEL melanoma = test system: M19-MEL melanoma
MALME-3M melanoma = test system: MALME-3M melanoma
MCF7 breast = test system: MCF7 breast
MDA-MB-231 breast = test system: MDA-MB-231 breast
MDA-MB-435 = test system: MDA-MB-435
MOLT-4 leukemia = test system: MOLT-4 leukemia
NCI-H23 lung = test system: NCI-H23 lung
NCI-H460 lung = test system: NCI-H460 lung
NCI-H522 lung = test system: NCI-H522 lung
NCI/ADR-RES ovarian = test system: NCI/ADR-RES ovarian
OVCAR-3 ovarian = test system: OVCAR-3 ovarian
OVCAR-4 ovarian = test system: OVCAR-4 ovarian
OVCAR-5 ovarian = test system: OVCAR-5 ovarian
OVCAR-8 ovarian = test system: OVCAR-8 ovarian
PC-3 prostate = test system: PC-3 prostate
RPMI-8226 leukemia = test system: RPMI-8226 leukemia
RXF 393 renal = test system: RXF 393 renal
RXF-631 renal = test system: RXF-631 renal
SF-268 CNS = test system: SF-268 CNS
SF-295 CNS = test system: SF-295 CNS
SF-539 CNS = test system: SF-539 CNS
SK-MEL-2 melanoma = test system: SK-MEL-2 melanoma
SK-MEL-28 melanoma = test system: SK-MEL-28 melanoma
SK-MEL-5 melanoma = test system: SK-MEL-5 melanoma
SK-OV-3 ovarian = test system: SK-OV-3 ovarian
SN12C renal = test system: SN12C renal
SNB-19 CNS = test system: SNB-19 CNS
SNB-75 CNS = test system: SNB-75 CNS
SNB-78 CNS = test system: SNB-78 CNS
SR leukemia = test system: SR leukemia
SW-620 colon = test system: SW-620 colon
T-47D breast = test system: T-47D breast
TK-10 renal = test system: TK-10 renal
U251 CNS = test system: U251 CNS
UACC-257 melanoma = test system: UACC-257 melanoma
UACC-62 melanoma = test system: UACC-62 melanoma
UO-31 renal = test system: UO-31 renal

CCOC(=O)NC1C2CC(=O)OC(O2)C1OC(C)=O (stereo not given)
TGI (786-0 renal): > 100 µM
TGI (A498 renal): > 100 µM
TGI (A549 NSCLC): > 100 µM
TGI (ACHN renal): > 100 µM
GI50 (BT-549 breast): > 100 µM
TGI (BT-549 breast): > 100 µM
TGI (CAKI-1 renal): > 100 µM
TGI (CCRF-CEM leukemia): > 100 µM
TGI (COLO 205 colon): > 100 µM
TGI (DLD-1 colon): > 100 µM
TGI (DMS 273 small cell lung): > 100 µM
GI50 (DU-145 prostate): > 100 µM
TGI (DU-145 prostate): > 100 µM
TGI (EKVX NSCLC): > 100 µM
TGI (HCC-2998 colon): > 100 µM
TGI (HCT-116 colon): > 100 µM
TGI (HCT-15 colon): > 100 µM
GI50 (HL-60(TB) leukemia): > 100 µM
TGI (HL-60(TB) leukemia): > 100 µM
TGI (HOP-18 NSCLC): > 100 µM
TGI (HOP-62 NSCLC): > 100 µM
TGI (HOP-92 NSCLC): > 100 µM
GI50 (HS 578T breast): > 100 µM
TGI (HS 578T breast): > 100 µM
TGI (HT29 colon): > 100 µM
TGI (IGROV1 ovarian): > 100 µM
TGI (K-562 leukemia): > 100 µM
TGI (KM12 colon): > 100 µM
TGI (KM20L2 colon): > 100 µM
TGI (LOX IMVI melanoma): > 100 µM
TGI (LXFL 529 NSCLC): > 100 µM
TGI (M14 melanoma): > 100 µM
TGI (M19-MEL melanoma): > 100 µM
TGI (MALME-3M melanoma): > 100 µM
GI50 (MCF7 breast): > 100 µM
TGI (MCF7 breast): > 100 µM
GI50 (MDA-MB-231 breast): > 100 µM
TGI (MDA-MB-231 breast): > 100 µM
GI50 (MDA-MB-435): > 100 µM
TGI (MDA-MB-435): > 100 µM
TGI (MOLT-4 leukemia): > 100 µM
TGI (NCI-H23 lung): > 100 µM
TGI (NCI-H460 lung): > 100 µM
TGI (NCI-H522 lung): > 100 µM
GI50 (NCI/ADR-RES ovarian): > 100 µM
TGI (NCI/ADR-RES ovarian): > 100 µM
TGI (OVCAR-3 ovarian): > 100 µM
TGI (OVCAR-4 ovarian): > 100 µM
TGI (OVCAR-5 ovarian): > 100 µM
TGI (OVCAR-8 ovarian): > 100 µM
GI50 (PC-3 prostate): > 100 µM
TGI (PC-3 prostate): > 100 µM
TGI (RPMI-8226 leukemia): > 100 µM
TGI (RXF 393 renal): > 100 µM
TGI (RXF-631 renal): > 100 µM
TGI (SF-268 CNS): > 100 µM
TGI (SF-295 CNS): > 100 µM
TGI (SF-539 CNS): > 100 µM
TGI (SK-MEL-2 melanoma): > 100 µM
TGI (SK-MEL-28 melanoma): > 100 µM
TGI (SK-MEL-5 melanoma): > 100 µM
TGI (SK-OV-3 ovarian): > 100 µM
TGI (SN12C renal): > 100 µM
TGI (SNB-19 CNS): > 100 µM
TGI (SNB-75 CNS): > 100 µM
TGI (SNB-78 CNS): > 100 µM
TGI (SR leukemia): > 100 µM
TGI (SW-620 colon): > 100 µM
GI50 (T-47D breast): > 100 µM
TGI (T-47D breast): > 100 µM
TGI (TK-10 renal): > 100 µM
TGI (U251 CNS): > 100 µM
TGI (UACC-257 melanoma): > 100 µM
TGI (UACC-62 melanoma): > 100 µM
TGI (UO-31 renal): > 100 µM
